This note sets out measurements from ChEMBL document CHEMBL2439974, “Design and Synthesis of 4-(4-Benzoylaminophenoxy)phenol Derivatives As Androgen Receptor Antagonists” (ACS Med Chem Lett, 2013).

The subject of one assay is PC-3. Briefly: Cytotoxicity against human PC3 cells assessed as growth inhibition after 3 days by WST-8 assay. The format is functional, cell-based. To be noted: PC-3, 72 h. On the technique in general: Tetrazolium assays rely on reduction of a dye to a coloured formazan, in cell work by metabolically active cells.
Assay [1] addresses T1, Androgen receptor (Homo sapiens) (UniProt P10275).
T1 sequence (whole entry): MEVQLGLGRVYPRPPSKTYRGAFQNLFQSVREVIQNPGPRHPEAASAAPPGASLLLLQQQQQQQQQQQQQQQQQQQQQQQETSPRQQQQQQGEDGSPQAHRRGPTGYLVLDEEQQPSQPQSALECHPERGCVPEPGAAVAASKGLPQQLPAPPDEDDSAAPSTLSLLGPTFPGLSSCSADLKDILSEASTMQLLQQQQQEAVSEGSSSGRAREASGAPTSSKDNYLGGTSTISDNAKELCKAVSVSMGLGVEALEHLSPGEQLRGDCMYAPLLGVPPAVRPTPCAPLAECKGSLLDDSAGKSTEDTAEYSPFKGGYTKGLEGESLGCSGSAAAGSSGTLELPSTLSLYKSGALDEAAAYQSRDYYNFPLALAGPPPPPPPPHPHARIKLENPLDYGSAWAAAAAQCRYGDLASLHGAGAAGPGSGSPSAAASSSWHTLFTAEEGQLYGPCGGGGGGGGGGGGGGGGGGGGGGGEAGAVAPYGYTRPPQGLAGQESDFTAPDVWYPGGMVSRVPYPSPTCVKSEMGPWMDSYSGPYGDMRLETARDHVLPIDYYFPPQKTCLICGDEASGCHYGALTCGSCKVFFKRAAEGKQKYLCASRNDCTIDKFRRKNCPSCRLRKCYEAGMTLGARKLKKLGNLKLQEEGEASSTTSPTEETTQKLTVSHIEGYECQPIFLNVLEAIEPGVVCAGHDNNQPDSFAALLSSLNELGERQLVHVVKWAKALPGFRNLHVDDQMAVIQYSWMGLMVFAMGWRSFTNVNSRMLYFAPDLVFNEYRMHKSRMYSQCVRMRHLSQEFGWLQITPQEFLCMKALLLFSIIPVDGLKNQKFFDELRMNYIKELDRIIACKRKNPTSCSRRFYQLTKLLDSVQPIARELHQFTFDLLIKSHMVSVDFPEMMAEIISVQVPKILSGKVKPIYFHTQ
Put plainly: Antagonist activity at androgen receptor in human MDA-kb2 cells assessed as inhibition of DHT-induced luciferase activity at 10 uM after 24 hrs by chemiluminescence assay relative to control. The format is cell-based.

The target of a further assay is T2, Androgen receptor (Homo sapiens, UniProt P10275).
T2 sequence (P10275 whole entry): T1 sequence (whole entry)
Put plainly: Displacement of [3H]-DHT from human GST-tagged androgen receptor LBD (627 to 919) expressed in Escherichia coli HB-101 after 15 hrs by liquid scintillation counting analysis.

For assay [2], the target named is Androgen receptor (Mus musculus) (UniProt P19091). Put plainly: Antagonist activity at androgen receptor in mouse SC3 cells assessed as inhibition of DHT-induced cell growth at 10 uM after 3 days by CCK-8/WST-8 assay relative to control. The format is cell-based. To be noted: SC-3.
Sequence of Androgen receptor (Mus musculus) (P19091 whole entry): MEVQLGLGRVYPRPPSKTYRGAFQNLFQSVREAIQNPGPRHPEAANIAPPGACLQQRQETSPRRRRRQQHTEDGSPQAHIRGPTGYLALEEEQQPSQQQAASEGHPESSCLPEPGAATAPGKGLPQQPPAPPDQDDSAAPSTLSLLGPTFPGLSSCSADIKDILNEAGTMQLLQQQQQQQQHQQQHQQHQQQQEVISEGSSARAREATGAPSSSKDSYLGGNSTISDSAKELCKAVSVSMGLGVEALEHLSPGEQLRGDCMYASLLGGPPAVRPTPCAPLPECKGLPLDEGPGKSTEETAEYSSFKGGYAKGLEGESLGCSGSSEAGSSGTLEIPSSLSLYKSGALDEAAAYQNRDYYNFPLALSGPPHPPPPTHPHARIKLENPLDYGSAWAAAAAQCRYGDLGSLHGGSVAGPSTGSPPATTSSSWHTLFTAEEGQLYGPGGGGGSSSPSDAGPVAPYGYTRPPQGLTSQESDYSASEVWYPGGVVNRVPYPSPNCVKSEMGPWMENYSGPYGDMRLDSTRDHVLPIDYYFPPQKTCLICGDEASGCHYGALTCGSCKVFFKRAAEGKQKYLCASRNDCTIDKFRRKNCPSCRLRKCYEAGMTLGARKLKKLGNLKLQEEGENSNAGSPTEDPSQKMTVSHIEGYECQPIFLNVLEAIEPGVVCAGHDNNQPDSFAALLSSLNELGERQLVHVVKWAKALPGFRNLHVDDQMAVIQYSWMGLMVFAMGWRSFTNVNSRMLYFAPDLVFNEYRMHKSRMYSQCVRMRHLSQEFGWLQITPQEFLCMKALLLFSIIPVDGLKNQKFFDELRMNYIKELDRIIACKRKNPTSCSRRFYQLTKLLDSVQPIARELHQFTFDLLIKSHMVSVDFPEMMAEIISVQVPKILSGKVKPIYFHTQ

The source made the active and inactive calls. No cut-off for these calls is given here. Bounds are passed on as bounds.

For the compound `COc1cccc(C(=O)Nc2cc(C)c(Oc3ccc(O)cc3)c(C)c2)c1`, the IC50 (as a rule, the point on the concentration scale where inhibition reaches its midpoint) was over 10 µM with PC-3 and 5.4 µM on Androgen receptor. The inhibition (usually the percentage by which the read-out fell short of the control) in assay [1] turned out to be 69%.
Consider `CC(C)(O)C(=O)Nc1ccc([N+](=O)[O-])c(C(F)(F)F)c1`, for which the inhibition in assay [1] was 60%.
For the compound `CC(O)(CS(=O)(=O)c1ccc(F)cc1)C(=O)Nc1ccc(C#N)c(C(F)(F)F)c1` (stereo not drawn) [BICALUTAMIDE], the IC50 with PC-3 is over 10 µM.
As to `O=C(Nc1ccc(Oc2ccccc2)cc1)c1ccccc1`, in assay [2], the growth inhibition (GI) stood at 20%.
Turning to `COc1cccc(C(=O)Nc2ccc(Oc3ccc(O)cc3)nc2)c1`, in assay [1], the inhibition entry is “inactive”. In addition, at Androgen receptor, the IC50 is over 10 µM.
The matching figures for `COc1cccc(C(=O)Nc2cnc(Oc3ccc(O)cc3)nc2)c1`: “inactive” and over 10 µM.
With `O=C(Nc1ccc(Oc2ccc(O)cc2)cc1)c1cccc(O)c1`, the “growth inhibition (GI)” value in assay [2] was “inactive”.
The same measure, in the same setting: then `O=C(Nc1ccc(Oc2ccc(O)cc2)cc1)c1ccc(O)cc1`, with “inactive”.
On to `COc1cccc(C(=O)Nc2ccc(Oc3ccc(O)cc3)c(C)c2)c1`, for which the IC50 in the assay with PC-3 stood at 5.7 µM; at Androgen receptor it was 9.2 µM. For the same compound, the inhibition in assay [1] amounted to 66%.
In the case of `COc1cccc(C(=O)Nc2ccc(Oc3ccc(O)cc3)cc2)c1`, the IC50 in the assay with PC-3 amounted to 5.6 µM; at Androgen receptor, 20 µM. For the same compound, the inhibition in assay [1] stood at 6%.
